Experimental data taken from ChEMBL document CHEMBL1122236, “3'-Amino-2',3'-dideoxyribonucleosides of some pyrimidines: synthesis and biological activities” (1983).
≈ marks a conversion by molar mass, not a printed value. Calls of active or inactive are those of the source. No cut-off for these calls is given here.

Key:
Staphylococcus aureus = experiment: In vitro minimum inhibitory concentration against Staphylococcus aureus; assay type: functional
Pseudomonas aeruginosa = experiment: Minimum inhibitory concentration against Pseudomonas aeruginosa; assay type: functional
Proteus mirabilis = experiment: Minimum inhibitory concentration against Proteus mirabilis; assay type: functional
Salmonella = experiment: Minimum inhibitory concentration against Salmonella typhi; assay type: functional, salmonella typhosa
Proteus vulgaris = experiment: Minimum inhibitory concentration against Proteus vulgaris; assay type: functional
D-38 = experiment: In vitro cytotoxicity against human D-38 cells.; assay type: functional; conditions: read-out: ED50 (the source's name)
Klebsiella aerogenes = experiment: Minimum inhibitory concentration against Enterobacter aerogenes; assay type: functional
Klebsiella pneumoniae = experiment: Minimum inhibitory concentration against Klebsiella pneumoniae; assay type: functional
unidentified adenovirus = experiment: In vitro antiviral activity against adeno virus using plaque reduction assay.; assay type: functional; conditions: read-out: ED50 (the source's name)
Vibrio cholerae = experiment: Minimum inhibitory concentration against Vibrio cholerae; assay type: functional
Citrobacter freundii = experiment: Minimum inhibitory concentration against Citrobacter freundii; assay type: functional
Salmonella typhimurium = experiment: Minimum inhibitory concentration against Salmonella Typhimurium; assay type: functional, Salmonella enterica subsp. enterica serovar Typhimurium; conditions: Salmonella enterica
Pasteurella multocida = experiment: Minimum inhibitory concentration against Pasteurella multocida; assay type: functional
L cells = experiment: in vitro cytotoxicity against mouse L cells.; assay type: functional; conditions: L929, read-out: ED50 (the source's name)
Escherichia coli = experiment: Minimum inhibitory concentration against Escherichia coli; assay type: functional
Serratia marcescens = experiment: Minimum inhibitory concentration against Serratia marcescens; assay type: functional
Shigella flexneri = experiment: Minimum inhibitory concentration against Shigella flexneri; assay type: functional
Priestia megaterium = experiment: Minimum inhibitory concentration against Bacillus megaterium; assay type: functional
[1] = test system: Escherichia coli (organism); experiment: Minimum inhibitory concentration against Escherichia coli
Streptococcus pyogenes = experiment: Minimum inhibitory concentration against Streptococcus pyogenes; assay type: functional
Enterococcus faecalis = experiment: Minimum inhibitory concentration against Streptococcus faecalis; assay type: functional
Streptococcus agalactiae = experiment: Minimum inhibitory concentration against Streptococcus agalactiae; assay type: functional
P388 = experiment: Activity against P-388/0 mouse tumor at 675 mg/kg administered three times on days 1, 5, 9 after implantation; Inactive; assay type: functional, organism-based; design: dose 675 mg/kg
Candida albicans = experiment: Minimum inhibitory concentration against Candida albicans; assay type: functional

SMILES | MIC (Staphylococcus aureus) | MIC (Pseudomonas aeruginosa) | MIC (Proteus mirabilis) | MIC (Salmonella) | MIC (Proteus vulgaris) | EC50 (D-38) | MIC (Klebsiella aerogenes) | MIC (Klebsiella pneumoniae) | EC50 (unidentified adenovirus) | MIC (Vibrio cholerae) | MIC (Citrobacter freundii) | MIC (Salmonella typhimurium) | MIC (Pasteurella multocida) | EC50 (L cells) | MIC (Escherichia coli) | MIC (Serratia marcescens) | MIC (Shigella flexneri) | also measured
NC1CC(n2cc(I)c(=O)[nH]c2=O)OC1CO (stereo not given) | > 400 µM | > 200 µM | > 200 µM | > 200 µM | > 200 µM | > 100 µM | > 200 µM | > 200 µM | > 100 µM | > 200 µM | > 200 µM | > 200 µM | > 200 µM | > 100 µM | > 200 µM | > 200 µM | > 200 µM | –
N[C@H]1C[C@H](n2ccc(=O)[nH]c2=O)O[C@@H]1CO | > 400 µM | > 200 µM | > 200 µM | > 200 µM | > 200 µM | > 100 µM | > 200 µM | > 200 µM | > 100 µM | > 200 µM | > 200 µM | > 200 µM | > 200 µM | > 100 µM | > 200 µM | > 200 µM | > 200 µM | –
NC1CC(n2cc(F)c(=O)[nH]c2=O)OC1CO (stereo not given) | 4 µM (≈ 0.981 µg/mL) | > 200 µM | > 200 µM | > 200 µM | > 200 µM | > 100 µM | > 200 µM | > 200 µM | 10 µM | > 200 µM | > 200 µM | > 200 µM | > 200 µM | 100 µM | – | > 200 µM | > 200 µM | MIC (Priestia megaterium): 40 µM (≈ 9.81 µg/mL); MIC [1]: > 200 µM; MIC (Streptococcus pyogenes): > 200 µM; MIC (Enterococcus faecalis): 20 µM (≈ 4.9 µg/mL); MIC (Streptococcus agalactiae): 20 µM (≈ 4.9 µg/mL); Activity (P388): inactive; MIC (Candida albicans): > 200 µM
Cc1cn([C@H]2C[C@H](N)[C@@H](CO)O2)c(=O)[nH]c1=O [3-AMINO- 3-DEOXYTHYMIDINE] | > 400 µM | > 200 µM | > 200 µM | > 200 µM | > 200 µM | 100 µM | > 200 µM | > 200 µM | > 100 µM | > 200 µM | > 200 µM | > 200 µM | > 200 µM | 3 µM | > 200 µM | > 200 µM | > 200 µM | –
NC1CC(n2cc(Br)c(=O)[nH]c2=O)OC1CO (stereo not given) | > 400 µM | > 200 µM | > 200 µM | > 200 µM | > 200 µM | > 100 µM | > 200 µM | > 200 µM | 100 µM | > 200 µM | > 200 µM | > 200 µM | > 200 µM | > 100 µM | > 200 µM | > 200 µM | > 200 µM | –
Nc1ccn([C@H]2C[C@H](N)[C@@H](CO)O2)c(=O)n1 | > 400 µM | > 200 µM | > 200 µM | > 200 µM | > 200 µM | 3 µM | > 200 µM | > 200 µM | > 100 µM | > 200 µM | > 200 µM | > 200 µM | > 200 µM | 1 µM | > 200 µM | > 200 µM | > 200 µM | –
NC1CC(n2cc(Cl)c(=O)[nH]c2=O)OC1CO (stereo not given) | > 200 µM | > 200 µM | > 200 µM | > 200 µM | > 200 µM | > 100 µM | > 200 µM | > 200 µM | 100 µM | > 200 µM | > 200 µM | > 200 µM | > 200 µM | 100 µM | > 200 µM | > 200 µM | > 200 µM | –
